From patent US20220202905A1, “COMPOSITION FOR PREVENTING OR TREATING NEUROTROPHIC KERATITIS WHICH CONTAINS PACAP PEPTIDE OR STABILIZED PACAP PEPTIDE” (SENJU PHARMACEUTICAL CO., LTD., priority 2019, published 2022)
Square brackets hold non-standard residues; d marks the D form. Peptide text beside a SMILES is read from it. Ala(1H-tetrazol-5-yl) = N[C@@H](Cc1nnn[nH]1)C(=O)O

How the values were obtained:
[1] = Peptide stability test, phosphate buffer (pH 7.0), 40° C. storage, HPLC remaining rate; assay type: physicochemical; conditions: Table 4; 100 μM in phosphate buffer pH 7.0; HPLC conditions 1
Procedure: Peptides 1 and 3 to 5 synthesized in Example 2 were weighed and dissolved in phosphate buffer (pH 7.0) to prepare 1.0 mM peptide solutions. The 1.0 mM peptide solutions were then diluted with phosphate buffer to 100 μM. After filtering with Chromatdisk (product of Merck Millipore, Millex-GV, 0.22 μm), each filtrate was dispensed into an LC vial (Waters Deactivated […] prepared peptide solutions were incubated for one month or 2 months in a 40° C. thermostatic bath to obtain stored samples. A simultaneously prepared sample among the peptide solutions that was not stored was used as a standard sample (initial sample). The standard sample and the stored samples were stored at -30° C. until sample analysis. Using the total weight of the aqueous peptide solution and storage vessel as the specimen weight, measurements were recorded as the specimen weights before storage and the specimen weights after storage under different storage conditions. The empty weight of the storage vessel was also measured, and the moisture permeability was determined by the following formula. After stirring the standard sample and the stored samples with a vortex mixer, each peptide solution was transferred to an HPLC vial (Deactivated Qsert vial by Waters Co.). Reverse-phase HPLC (HPLC system: Prominence by Shimadzu Corp.) was conducted under the conditions shown in Table 3 below for analysis of the peptide solutions, and chromatograms were obtained. Guard column: XSelect CSH C18 by Waters Co., 5 μm, 4.6×20 mm Guard Cartridge Detection wavelength: 220 nm Mobile phase A: 0.1% formic acid aqueous solution Mobile phase B: 0.1% acetonitrile formate solution Measuring time: 30 minutes Measuring sample injection rate: 50 μL Flow rate: 1.0 mL/min Sample cooler: 4° C. Column temperature: 40° C. Mobile phase delivery: The mixing ratio of mobile phase A and mobile phase B was varied as shown in Table 3 for linear concentration gradient control. The peak area value for the peptide in the chromatogram was calculated, and the remaining rate (remaining rate before correction for water) was calculated using formula (2). The remaining rate after correction for water was also calculated from the remaining rate before correction for water using formula (3), taking into account the moisture permeability of the vessel. Peptides 10 and 11 synthesized in Example 2 were weighed and dissolved in phosphate buffer (pH 7.0) to prepare 1.0 mM peptide solutions. Each solution was filtered with a Chromatdisk (product of Merck Millipore. Millex-GV, 0.22 μm). Each filtrate was diluted to 100 μM with phosphate buffer (pH 7.0) and dispensed into a tube (Protein LoBind Tube by Eppendorf Co.). The prepared peptide solutions were incubated for one month or 2 months in a 40° C. thermostatic bath to obtain stored samples. A simultaneously prepared sample among the peptide solutions that was not stored was used as a standard sample (initial sample). The standard sample and the stored samples were stored at -30° C. until sample analysis. The remaining rate after correction for water for each peptide among the stored samples was measured in the same manner as Example 4, and the results are shown in Table 8.

[2] = Peptide stability test, Tris buffer (pH 7.0), 60° C. storage, HPLC remaining rate; assay type: physicochemical; conditions: Table 6; 100 μM in Tris buffer pH 7.0; HPLC conditions 2
Method in brief: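 Peptides at 100 μM in Tris buffer (pH 7.0) stored 1 or 2 weeks at 60° C.; unstored sample kept at −30° C. as initial reference. Remaining peptide quantified by reversed-phase HPLC at 220 nm (formic acid/acetonitrile gradient, 40° C. column), as water-corrected remaining rate.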

| remaining rate after correction for water, 40° C., 1 month preservation [1] [%] | remaining rate after correction for water, 40° C., 2 months preservation [1] [%] | remaining rate after correction for water, 60° C., 1 week preservation [2] [%] | remaining rate after correction for water, 60° C., 2 weeks preservation [2] [%] | SMILES |
| --- | --- | --- | --- | --- |
| 37.4 | 21.3 |  |  | CC[C@H](C)[C@H](NC(=O)CNC(=O)[C@H](CC(=O)O)NC(=O)[C@H](CO)NC(=O)[C@@H](N)Cc1cnc[nH]1)C(=O)N[C@@H](Cc1ccccc1)C(=O)N[C@H](C(=O)N[C@@H](CC(=O)O)C(=O)N[C@@H](CO)C(=O)N[C@@H](Cc1ccc(O)cc1)C(=O)N[C@@H](CO)C(=O)N[C@@H](CCCNC(=N)N)C(=O)N[C@@H](Cc1ccc(O)cc1)C(=O)N[C@@H](CCCNC(=N)N)C(=O)N[C@@H](CCCCN)C(=O)N[C@@H](CCC(N)=O)C(=O)N[C@@H](CCSC)C(=O)N[C@@H](C)C(=O)N[C@H](C(=O)N[C@@H](CCCCN)C(=O)N[C@@H](CCCCN)C(=O)N[C@@H](Cc1ccc(O)cc1)C(=O)N[C@@H](CC(C)C)C(=O)N[C@@H](C)C(=O)N[C@@H](C)C(=O)N[C@H](C(=O)N[C@@H](CC(C)C)C(N)=O)C(C)C)C(C)C)[C@@H](C)O [Peptide 1, reference compound] |
|  |  | 98.4 | 92.8 | CC[C@H](C)[C@H](NC(=O)CNC(=O)[C@H](Cc1nnn[nH]1)NC(=O)[C@H](CO)NC(=O)[C@H](Cc1c[nH]cn1)NC(C)=O)C(=O)N[C@@H](Cc1ccccc1)C(=O)N[C@H](C(=O)N[C@@H](Cc1nnn[nH]1)C(=O)N[C@@H](CO)C(=O)N[C@@H](Cc1ccc(O)cc1)C(=O)N[C@@H](CO)C(=O)N[C@@H](CCCNC(=N)N)C(=O)N[C@@H](Cc1ccc(O)cc1)C(=O)N[C@@H](CCCNC(=N)N)C(=O)N[C@@H](CCCCN)C(=O)N[C@@H](CCC(N)=O)C(=O)N[C@@H](CC(C)C)C(=O)N[C@@H](C)C(=O)N[C@H](C(=O)N[C@@H](CCCCN)C(=O)N[C@@H](CCCCN)C(=O)N[C@@H](Cc1ccc(O)cc1)C(=O)N[C@@H](CC(C)C)C(=O)N[C@@H](C)C(=O)N[C@@H](C)C(=O)N[C@H](C(=O)N[C@@H](CC(C)C)C(N)=O)C(C)C)C(C)C)[C@@H](C)O [Peptide 9] (Ac-HS[Ala(1H-tetrazol-5-yl)]GIFT[Ala(1H-tetrazol-5-yl)]SYSRYRKQLAVKKYLAAVL-NH2) |
